Values after ≈ are worked out from the molar mass of the structure shown. Read-outs that look alike come from different tables or passages of the source. *1 amine or outer side, *2 acyl side, *3 side chain or, on linkers, in order; H or OH if unused. Where a SMILES comes first, the peptide text is derived from it. Bridges are numbered along the chain shown (N, C = ends). [ ]: non-standard residue; d: D form. The star is where a group is joined. ξ: configuration not given here. Orn(4R-OH,5R-OH) = O=C([C@H](C[C@@H](O)[C@@H](O)N[*:3])N[*:1])[*:2]; hTyr(3S-OH,4S-OH) = N[C@H](C(=O)O)[C@H](O)[C@@H](O)c1ccc(O)cc1; ξOrn(4,5-diOH) = O=C(C(CC(O)C(O)N[*:3])N[*:1])[*:2]; ξhTyr(βξ-OH,γξ-OH) = NC(C(=O)O)C(O)C(O)c1ccc(O)cc1; Pro(3S-OH,4S-Me) = C[C@H]1CN[C@H](C(=O)O)[C@H]1O; Benzoyl(4-octyloxy) = CCCCCCCCOc1ccc(C(=O)*)cc1; ξPro(3ξ-OH,4ξ-Me) = CC1CNC(C(=O)O)C1O; Palmitoyl = CCCCCCCCCCCCCCCC(=O)*; Hyp = O=C(O)[CH]1C[CH](O)CN1 Where only a bound is given, the exact number is not on record here.

Data on 4 compounds can be found in US5821353A, “DNA encoding 1,3 beta-D glucan synthase subunits” (Merck & Co., Inc., priority 1996, dated 1998).

The subject of assay [1] is S. cerevisiae R560-1 / R560-1C (fks1-2). The assay is described as follows: liquid MIC assay of resistant clone. Type of assay: cell-based, Saccharomyces cerevisiae. The protocol: Strain W303-1A was transformed by the spheroplast method (MYG) with yeast genomic libraries obtained from D. Botstein (1982. Cell, 28:145-154). Transformants selected on uracil dropout medium were pooled and stored at -80° C. in 20% glycerol. After determining the titer (colony forming units(CFU)/ml), aliquots of the stocks were spread at .congruent.5×10^3 CFU per plate onto uracil dropout medium containing the semisynthetic echinocandin L-733,560 at 0.5 mcg/ml or 1.25 mcg/ml. This concentration of L-733,560 is sufficient to select for resistant clones. Twenty-seven drug resistant colonies were isolated. […] Briefly, L-733,560 was serially diluted across the wells of a sterile microtiter plate such that the concentration in each row ranged from 16 to 0.03 mcg/ml in 2-fold increments after an equal volume of a cell suspension in liquid uracil dropout medium was added. After 24 h at 30° C., plates were read in a spectrophotometer at a wavelength of 600 nm, and the percent of control growth in each well (relative to a no-drug control well) was calculated. […]
Because this strain was isolated as a transfornant from the genomic library, it was expected that resistance would be due to the gene residing on the plasmid contained in R560-1. […] R560-1C was mated to the wild type strain W303-1B, sporulated, dissected, and the sensitivity to L-733,560 quantitated by liquid MIC assay. […]

Assay [2] relates to S. cerevisiae YFK0931-07B. The assay is described as follows: MIC assay. Format: cell-based. Particulars: Saccharomyces cerevisiae, YFK093107B, 42 h. On the procedure:
(§1) The sensitivities of pcr1(fks2-1) fks1-1 and pcr1(fks2-1) FKS1 strains to L-733,560, L-636,947 (Aculeacin), and L-687,781 (Dihydropapulocandin) were determined in MIC assays. Briefly, strains were grown to stationary phase in 5.0 ml of liquid YPAD medium. MY2256 precultures were grown in liquid YPAD10Ca. MIC assays were performed in flat well microtiter plates in triplicate. Each well of the microtiter plate was filled with 100 mcL of YPAD medium. To the first well, 100 mcL of a 4× solution of drug in YPAD medium was added. To serve as a control, a stock solution of […] of YPAD was made. 100 mcL of this solution was added to the initial well for strains grown in the presence of solvent but the absence of drug. Two-fold serial dilutions of the drug were performed down the plate.
(§2) Cultures were diluted to 5×10^5 cells/ml in YPAD (1 OD660 =3.3×10^7 cells/ml). 100 mcL of diluted culture was added to each well, resuspended, and incubated at 28° C. After 42 hours, cultures were resuspended and cells densities measured in an SLT Laboratories 340 ATTC microtiter plate reader.

The test system of assay [3] is S. cerevisiae MY2256. Description: MIC assay. Format: cell-based. Particulars: Saccharomyces cerevisiae, MY2256, 42 h. The protocol: as §1, §2
The test system of assay [4] is S. cerevisiae FKS1 pcr1 spores. Description: drug phenotype of segregants from tetrad analysis. Type of assay: cell-based, Saccharomyces cerevisiae. From the text:
YFK0996-11B (MATa fks1-1 pcr1) was also crossed to YFK0005 (MATalpha FKS1 PCR1). In this cross, the pcr1 and fks1-1 mutations segregate independently. In the 16 four-spore and 20 three-spore tetrads, the segregation pattern of 1 Parental Ditype: 1 Non Parental Ditype : 4 Tetratype tetrads is indicative of two unlinked genes. […] Strains MY2257 (also known as YFK1088-23B, MATa FKS1 +pcr1), MY2258 (also known as YFK1088-16D, MATalpha FKS1+pcr1), and YFK1088-02D (MATa FKS1 +pcr1) were segregants from this cross. As shown in the table below, these segregants contain the pcr1 mutation in a wild-type FKS1 background and lack plasmid pDL1 present in the original mutant.

The subject of assay [5] is S. cerevisiae YFK798 (fks1-1 + CN). Description: primary screen, zone size on agar (calcineurin counter screen). Format: cell-based, Saccharomyces cerevisiae. Particulars: 20 ng FK506, 10 mcg CsA, 10 mcg L733,560, 20 mcg aculeacin, 20 mcg papulacandin, 48 h. On the procedure: Counter screening strains were devised for identifying calcineurin inhibitors. Overexpression of yeast calcineurin in the fks1-1 mutant (strain YFK798) constitutes the most general of these. […] Glucan synthase inhibitors show neither effect and thus can be distinguished from calcineurin inhibitors.
(§3) Each strain is grown at 28°-30° C. in YPAD/10 mM CaCl2 medium with shaking at 220 rpm (to mid or late log phase). The cultures are diluted 1:10 with water, and the OD values of the dilutions are measured at 600 nm (against a blank of YPAD/10 mM CaCl2 similarly diluted 1:10 in water). The OD value is multiplied by 10 to estimate the OD of the culture. Portions (100 ml) of YPAD/10 mM CaCl2 medium containing 1.5% agar, equilibrated at 45° C. in a water bath, are seeded with culture such that the final cell density in the agar would have an OD value of 0.015 (i.e., 3×10^6 cfu/ml; a sample calculation is provided below). The seeded agar is poured into 500 cm^2 Nunc plates. Once the agar plates have solidified, 10 mcL aliquots of samples containing test compounds, such as fermentation extracts, are dissolved in water, 100% methanol or ethanol, or up to 50% DMSO and are placed on each member of the two-plate set in 11 by 8 arrays.
(§4) The plates are incubated for 48 h at 28°-30° C. Diameters of the zones are read to the outermost edge and recorded in mm. The clarity of the zone is reported as clear (no designation), hazy (h), or very hazy (vh). Very hazy zones are best seen by viewing the plate under an elevated light placed between the assay dish and a dark wall.
A general note: The purpose of a counterscreen is to sort out artefacts and off-target activity.

Assay [6] has as its system S. cerevisiae YFK532-7C (fks1-1). The assay is described as follows: primary screen, zone size on agar. Format: cell-based, Saccharomyces cerevisiae. Particulars: 20 ng FK506, 10 mcg CsA, 10 mcg L733,560, 20 mcg aculeacin, 20 mcg papulacandin, 48 h. The protocol:
as §3, §4

Assay [7] concerns S. cerevisiae YFK007 (wild type). Description: primary screen, zone size on agar. Type of assay: cell-based, Saccharomyces cerevisiae. Particulars: 20 ng FK506, 10 mcg CsA, 10 mcg L733,560, 20 mcg aculeacin, 20 mcg papulacandin, 48 h. On the procedure:
as §3, §4

Assay [8] has as its system S. cerevisiae W303-1A. Description: secondary screen, zone size on agar. Format: cell-based, Saccharomyces cerevisiae. Particulars: 20 ng FK506, 10 mcg CsA, 10 mcg L733,560, 20 mcg aculeacin, 20 mcg papulacandin. The protocol: (§5) For positively identifying glucan synthase inhibitors, screening with strain R560-1C and its parent W303-1A was instituted in a manner identical to that described for calcineurin inhibitors. Complete loss of a zone, or marked reduction in size, on R560-1C versus W303-1A indicates a glucan synthase inhibitor. No zones are seen with calcineurin inhibitors using this pair of strains.
as §3, §4

Assay [9] relates to S. cerevisiae R560-1C. Description: secondary screen, zone size on agar. Particulars: 20 ng FK506, 10 mcg CsA, 10 mcg L733,560, 20 mcg aculeacin, 20 mcg papulacandin. Format: cell-based, Saccharomyces cerevisiae. The protocol:
as §5, §3, §4

The subject of assay [10] is S. cerevisiae FKS1 pcr1 (fks2-1): MY2257, MY2258. The assay is described as follows: MIC assay. Type of assay: cell-based, Saccharomyces cerevisiae. Particulars: less than 10% growth, 42 hours. The protocol:
as §1
(§6) Cultures were diluted to 5×10^5 cells/ml in YPAD (1 OD660 =3.3×10^7 cells/ml). 100 mcL of diluted culture was added to each well, resuspended, and incubated at 28° C. After 42 hours, cultures were resuspended and cells densities measured in an SLT Laboratories 340 ATTC microtiter plate reader. The MICs concentrations presented in the table below represent the concentrations of drug that result in less than 10% growth of the strain grown in the absence of drug.

In assay [11] the test system is S. cerevisiae wild type YFK0005. Description: MIC assay. Type of assay: cell-based, Saccharomyces cerevisiae. Particulars: less than 10% growth of no-drug control, 42 hours, 28° C. The protocol:
as §1, §6

In assay [12] the test system is S. cerevisiae fks1-1 PCR1 YFK0688-14B. Description: MIC assay. Format: cell-based, Saccharomyces cerevisiae. Particulars: less than 10% growth of no-drug control, 42 hours, 28° C. On the procedure: as §1, §6
Assay [13] has as its system S. cerevisiae fks1-1 pcr1 (fks2-1): MY2256, YFK0996-11B, MY2259, MY2260. The assay is described as follows: MIC assay. Particulars: less than 10% growth, 42 hours. Format: cell-based, Saccharomyces cerevisiae. The protocol: as §1, §6

In the case of `CCCCCCCCOc1ccc(C(=O)N[C@H]2C[C@@H](O)[C@@H](O)NC(=O)[C@@H]3[C@@H](O)[C@@H](C)CN3C(=O)[C@H]([C@@H](C)O)NC(=O)[C@H]([C@H](O)[C@@H](O)c3ccc(O)cc3)NC(=O)[C@@H]3C[C@@H](O)CN3C(=O)[C@H]([C@@H](C)O)NC2=O)cc1` [L-646,991, cilofungin] ({Benzoyl(4-octyloxy)}-[Orn(4R-OH,5R-OH)]T[Hyp][hTyr(3S-OH,4S-OH)]T[Pro(3S-OH,4S-Me)]; lactam 1-C), the “resistance phenotype in liquid MIC assay” value in [1] is on record as “resistance phenotype”.
In general, MIC refers to the lowest concentration that inhibits growth of the organism. `CO[C@H]1C[C@@H]2CC[C@@H](C)[C@@](O)(O2)C(=O)C(=O)N2CCCC[C@H]2C(=O)O[C@H]([C@H](C)C[C@@H]2CC[C@@H](O)[C@H](OC)C2)CC(=O)[C@H](C)/C=C(\C)[C@@H](O)[C@@H](OC)C(=O)[C@H](C)C[C@H](C)/C=C/C=C/C=C/1C` [Rapamycin, rapamycin]: the minimum inhibitory concentration (MIC) was found to be 0.007 µg/mL (≈ 0.00766 µM) in [2] (YFK0931-07B, read-out: MIC) and 0.007 µg/mL (≈ 0.00766 µM) in assay [3].
For the compound `CCC1C=C(C)CC(C)CC(OC)C2OC(O)(C(=O)C(=O)N3CCCCC3C(=O)OC(C(C)=CC3CCC(O)C(OC)C3)C(C)C(O)CC1=O)C(C)CC2OC` (stereo not drawn) [FK520], the MIC in [2] and in assay [3] was 0.06 µg/mL (≈ 0.0758 µM) each time. In [4], the “drug resistance phenotype of spores” value is “resistant”.
Consider `CCCCCCCCCCCCCCCC(=O)NC1CC(O)C(O)NC(=O)C2C(O)C(C)CN2C(=O)C(C(C)O)NC(=O)C(C(O)C(O)c2ccc(O)cc2)NC(=O)C2CC(O)CN2C(=O)C(C(C)O)NC1=O` [L-636,947, aculeacin] (Palmitoyl-[ξOrn(4,5-diOH)]T[Hyp][ξhTyr(βξ-OH,γξ-OH)]T[ξPro(3ξ-OH,4ξ-Me)]; lactam 1-C; configuration not given here), for which the “Primary Screen Zone size (mm)” value in [5] is given as 27-30 mm; in assay [6] it was 27-30 mm; in [7], 22-24 mm. Besides, the “Secondary Screen Zone size (mm)” value was 18-22 mm in assay [8] and 17-20 mm in assay [9]. Also, the minimum inhibitory concentration (MIC) is > 40 µg/mL in assay [10], 1 µg/mL (≈ 0.965 µM) in assay [11], 0.5 µg/mL (≈ 0.483 µM) in assay [12] and > 40 µg/mL in assay [13].
